Source: the NIST ThermoML archive (doi:10.1016/j.fluid.2009.04.021)
Numbers after ± are expanded uncertainties.

Details: 101.33 kPa, Liquid, Buoyancy - hydrostatic balance

CCn1cc[n+](C)c1.F[B-](F)(F)F [1-ethyl-3-methylimidazolium tetrafluoroborate]
Details	mass density [kg/m3]
293.41 K	1287.17 ± 10
298.14 K	1283.2 ± 10
303.08 K	1279.88 ± 10
307.94 K	1275.06 ± 10
313 K	1271.88 ± 10
318.7 K	1267.21 ± 10
322.5 K	1265.05 ± 10
328.4 K	1260.59 ± 10
332.78 K	1257.46 ± 10
338.22 K	1254.07 ± 10
343.05 K	1251.15 ± 10
347.97 K	1247.07 ± 10
353.07 K	1243.6 ± 10

CCCCn1cc[n+](C)c1.F[B-](F)(F)F [1-butyl-3-methylimidazolium tetrafluoroborate]
Details	mass density [kg/m3]
281.45 K	1213.36 ± 10
283.01 K	1212.07 ± 10
288.41 K	1207.87 ± 10
288.49 K	1207.91 ± 10
293.2 K	1204.14 ± 10
293.49 K	1204.59 ± 10
298.19 K	1200.74 ± 10
298.29 K	1200.69 ± 10
303.04 K	1197.96 ± 10
303.25 K	1196.93 ± 10
308.02 K	1192.73 ± 10
308.14 K	1193.22 ± 10
312.86 K	1190.14 ± 10
313.44 K	1190.35 ± 10
318.17 K	1187.07 ± 10
318.18 K	1185.49 ± 10
323.04 K	1183.15 ± 10
323.06 K	1184.13 ± 10
327.58 K	1180.59 ± 10
328.06 K	1179.55 ± 10
332.87 K	1175.86 ± 10
333.24 K	1177.1 ± 10
337.9 K	1173.42 ± 10
337.97 K	1172.99 ± 10
342.78 K	1169.84 ± 10
343.45 K	1170.2 ± 10
347.5 K	1166.66 ± 10
348.11 K	1166.78 ± 10
350.81 K	1165.3 ± 10
352.74 K	1163.68 ± 10

CCCCCCn1cc[n+](C)c1.F[B-](F)(F)F [1-hexyl-3-methylimidazolium tetrafluoroborate]
Details	mass density [kg/m3]
283.61 K	1166.71 ± 10
288.57 K	1163.12 ± 10
293.48 K	1159.99 ± 10
298.22 K	1156.57 ± 10
303.11 K	1152.91 ± 10
308.16 K	1149.26 ± 10
313.25 K	1146.23 ± 10
318.33 K	1142.64 ± 10
323 K	1139.57 ± 10
328.63 K	1135.72 ± 10
333.69 K	1132.53 ± 10
338.15 K	1129.41 ± 10
343.04 K	1126.12 ± 10
348.26 K	1122.71 ± 10
352.72 K	1119.68 ± 10
